Experimental findings from patent publication US10660877B2 (BRISTOL-MYERS SQUIBB COMPANY, priority 2016, dated 2020) are described below.

Test [1] deals with human TLR9 (Homo sapiens (Human), UniProt Q9NR96). Kind of test: TLR9 inhibition reporter assay (HEK-Blue cells, SEAP reporter, ODN2006 stimulation).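 Note: compounds tested over 0.05 nM to 50 µM, 22 h incubation, inhibition taken as SEAP signal drop from agonist plus DMSO wells toward a known inhibitor control.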 Conditions: read-out: TLR9 IC50, HEK-Blue cells overexpressing human TLR9, ODN2006 5 nM. For orientation: A reporter such as luciferase makes a cellular process visible.
Sequence of human TLR9 (Q9NR96 26-1032): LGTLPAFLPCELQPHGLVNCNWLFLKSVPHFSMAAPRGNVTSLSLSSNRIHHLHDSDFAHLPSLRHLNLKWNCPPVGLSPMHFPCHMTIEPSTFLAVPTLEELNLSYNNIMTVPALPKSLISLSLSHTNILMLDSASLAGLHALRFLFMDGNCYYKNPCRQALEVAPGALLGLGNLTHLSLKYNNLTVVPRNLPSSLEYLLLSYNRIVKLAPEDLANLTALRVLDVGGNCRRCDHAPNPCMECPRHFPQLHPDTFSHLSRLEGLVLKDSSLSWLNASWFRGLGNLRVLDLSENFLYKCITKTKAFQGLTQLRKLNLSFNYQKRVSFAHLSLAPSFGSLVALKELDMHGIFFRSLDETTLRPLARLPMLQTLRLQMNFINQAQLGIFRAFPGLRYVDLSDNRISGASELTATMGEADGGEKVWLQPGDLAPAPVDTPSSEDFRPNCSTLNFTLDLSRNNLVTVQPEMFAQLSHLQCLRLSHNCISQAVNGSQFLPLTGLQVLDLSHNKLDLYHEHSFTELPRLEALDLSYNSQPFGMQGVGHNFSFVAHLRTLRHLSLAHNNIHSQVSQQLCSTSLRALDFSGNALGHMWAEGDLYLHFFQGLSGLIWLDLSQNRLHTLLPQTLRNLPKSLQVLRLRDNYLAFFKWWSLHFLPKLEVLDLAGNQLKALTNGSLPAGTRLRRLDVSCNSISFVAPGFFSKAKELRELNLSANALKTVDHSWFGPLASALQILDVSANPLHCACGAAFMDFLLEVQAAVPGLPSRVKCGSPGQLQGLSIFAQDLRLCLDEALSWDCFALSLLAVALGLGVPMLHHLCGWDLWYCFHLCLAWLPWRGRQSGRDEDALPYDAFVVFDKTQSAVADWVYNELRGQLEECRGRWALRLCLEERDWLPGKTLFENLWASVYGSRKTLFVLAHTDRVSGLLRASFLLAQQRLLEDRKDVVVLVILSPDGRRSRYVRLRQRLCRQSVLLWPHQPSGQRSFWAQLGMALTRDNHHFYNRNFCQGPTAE
The target in test [2] is human TLR7 (Homo sapiens (Human), UniProt Q9NYK1). Kind of test: TLR7 inhibition reporter assay (HEK-Blue cells, SEAP reporter, gardiquimod stimulation). Format: cell-based. To be noted: HEK-Blue cells overexpressing human TLR7, gardiquimod 7.5 μM.
Sequence of human TLR7 (Q9NYK1 27-1049): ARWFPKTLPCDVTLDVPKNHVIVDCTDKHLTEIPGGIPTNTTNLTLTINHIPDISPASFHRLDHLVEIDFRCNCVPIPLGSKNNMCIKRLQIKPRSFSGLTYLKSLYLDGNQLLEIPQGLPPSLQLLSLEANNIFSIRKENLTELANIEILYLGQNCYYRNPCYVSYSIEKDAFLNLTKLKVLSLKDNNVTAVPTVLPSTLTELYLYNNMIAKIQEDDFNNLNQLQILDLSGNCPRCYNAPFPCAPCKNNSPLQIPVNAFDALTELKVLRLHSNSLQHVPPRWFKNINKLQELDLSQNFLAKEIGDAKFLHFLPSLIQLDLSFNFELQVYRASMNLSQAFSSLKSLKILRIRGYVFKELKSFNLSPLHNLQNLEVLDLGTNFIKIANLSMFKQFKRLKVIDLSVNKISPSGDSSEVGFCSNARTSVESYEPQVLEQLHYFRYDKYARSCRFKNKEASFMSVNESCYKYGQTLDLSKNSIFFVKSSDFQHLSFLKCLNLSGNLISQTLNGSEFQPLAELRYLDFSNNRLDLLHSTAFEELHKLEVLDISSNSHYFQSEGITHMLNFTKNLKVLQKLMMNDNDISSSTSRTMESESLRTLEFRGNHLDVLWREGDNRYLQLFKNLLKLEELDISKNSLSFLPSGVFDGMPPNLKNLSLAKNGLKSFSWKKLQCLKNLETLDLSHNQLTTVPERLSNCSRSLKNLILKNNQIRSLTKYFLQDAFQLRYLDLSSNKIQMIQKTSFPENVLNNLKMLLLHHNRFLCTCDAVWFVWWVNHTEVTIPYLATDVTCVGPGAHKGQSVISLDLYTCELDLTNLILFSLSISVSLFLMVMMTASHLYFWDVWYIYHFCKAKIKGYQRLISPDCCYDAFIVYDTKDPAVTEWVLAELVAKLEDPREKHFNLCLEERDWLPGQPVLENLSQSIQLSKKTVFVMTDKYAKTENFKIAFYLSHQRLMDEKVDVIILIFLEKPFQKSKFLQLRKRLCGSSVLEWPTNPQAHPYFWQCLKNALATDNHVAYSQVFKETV

By IC50 is commonly meant the point on the concentration scale where inhibition reaches its midpoint.

With `CC(C)c1c(-c2ccnc(C(F)(F)F)c2)[nH]c2ccc(C3CCNCC3)cc12` [Example 6, 3-isopropyl-5-(piperidin-4-yl)-2-(2-(trifluoromethyl)pyridin-4-yl)-1H-indole], the results for the IC50 in test [1] and in test [2] were 1480 nM and 28.2 nM, respectively.

In the case of `CC(C)c1c(-c2ccncc2CO)[nH]c2ccc(C3CCNCC3)cc12` [Example 19, (4-(3-isopropyl-5-(piperidin-4-yl)-1H-indol-2-yl)pyridin-3-yl)methanol], the values for the half-inhibitory concentration (IC50) in test [1] and in test [2] were 1860 nM and 124 nM, respectively.

Turning to `CC(C)c1c(-c2ccncc2)[nH]c2ccc(C3CCNCC3)cc12` [Example 38, 3-isopropyl-5-(piperidin-4-yl)-2-(pyridin-4-yl)-1H-indole], the IC50 in test [1] is 2150 nM; in test [2] it was 38.4 nM. Regarding `Cc1nc(C)c(C)c(-c2[nH]c3ccc(C4CCNCC4)cc3c2C(C)C)c1C` [Example 43, 3-isopropyl-5-(piperidin-4-yl)-2-(2,3,5,6-tetramethylpyridin-4-yl)-1H-indole], the IC50 turned out to be 546 nM in test [1] and 278 nM in test [2]. For `COc1cc(-c2[nH]c3ccc(C4CCNCC4)cc3c2C(C)C)cc(C)n1` [Example 46, 3-isopropyl-2-(2-methoxy-6-methylpyridin-4-yl)-5-(piperidin-4-yl)-1H-indole], the IC50 was 2340 nM in test [1] and 1.5 nM in test [2]. Turning to `CCc1c(-c2ccnc(C)c2)[nH]c2ccc(C3CCNCC3)cc12` [Example 63, 3-ethyl-2-(2-methylpyridin-4-yl)-5-(piperidin-4-yl)-1H-indole], the values for the IC50 in test [1] and in test [2] were 329 nM and 27.7 nM, respectively. For `Cc1cc(-c2[nH]c3cc(F)c(C4CCNCC4)cc3c2C(C)C)ccn1` [Example 73, 6-fluoro-3-isopropyl-2-(2-methylpyridin-4-yl)-5-(piperidin-4-yl)-1H-indole], in that order: 4720 nM and 4.4 nM. The corresponding values for `Cc1cc(-c2[nH]c3cc(C)c(C4CCNCC4)cc3c2C(C)C)ccn1` [Example 75, 3-isopropyl-6-methyl-2-(2-methylpyridin-4-yl)-5-(piperidin-4-yl)-1H-indole] are 180 nM and 5 nM. For `Cc1cc(-c2[nH]c3ccc(C4CCNCC4)c(F)c3c2C(C)C)cc(C)n1` [Example 77, 2-(2,6-dimethylpyridin-4-yl)-4-fluoro-3-isopropyl-5-(piperidin-4-yl)-1H-indole], in that order: 344 nM and 0.5 nM. In test [2], `CCc1c(-c2ccnc(C)c2)[nH]c2ccc(C3CCNCC3)c(C)c12` [Example 82, 3-ethyl-4-methyl-2-(2-methylpyridin-4-yl)-5-(piperidin-4-yl)-1H-indole] yielded an IC50 of 7.3 nM.

In the case of `CCc1c(-c2ccnc(C)c2)[nH]c2cc(F)c(C3CCNCC3)c(F)c12` [Example 83, 3-ethyl-4,6-difluoro-2-(2-methylpyridin-4-yl)-5-(piperidin-4-yl)-1H-indole], 11 nM corresponded to half-maximal inhibition in test [2] (IC50). As to `Cc1cc(-c2[nH]c3ccc(C4CCN(C(=O)c5ccncc5)CC4)cc3c2C(C)C)cc(C)n1` [Example 113], the IC50 in test [1] turned out to be 15700 nM. For the molecule `Cc1cc(-c2[nH]c3ccc(C4CCNCC4)cc3c2C(C)C)cc(C2CC2)n1` [Example 478, 2-(2-cyclopropyl-6-methylpyridin-4-yl)-3-isopropyl-5-(piperidin-4-yl)-1H-indole], the 50% inhibitory concentration (IC50) in test [1] is 1330 nM; in test [2], 10.2 nM. For `CCc1cc(-c2[nH]c3ccc(C4CCNCC4)cc3c2C(C)C)cc(C)n1` [Example 479, 2-(2-ethyl-6-methylpyridin-4-yl)-3-isopropyl-5-(piperidin-4-yl)-1H-indole], in that order: 3400 nM and 98.4 nM. The corresponding values for `CC(C)c1c(-c2ccnc(C3CC3)c2)[nH]c2ccc(C3CCNCC3)cc12` [Example 483, 2-(2-cyclopropylpyridin-4-yl)-3-isopropyl-5-(piperidin-4-yl)-1H-indole] are 1440 nM and 46.2 nM. The corresponding values for `COc1cc(-c2[nH]c3ccc(C4CCNCC4)cc3c2C(C)C)ccn1` [Example 485, 3-isopropyl-2-(2-methoxypyridin-4-yl)-5-(piperidin-4-yl)-1H-indole] are 3040 nM and 11.8 nM. With `CNCCN1CCC(c2ccc3[nH]c(-c4ccnc(C(F)(F)F)c4)c(C)c3c2)CC1` [Example 747, N-methyl-2-(4-(3-methyl-2-(2-(trifluoromethyl)pyridin-4-yl)-1H-indol-5-yl)piperidin-1-yl)ethan-1-amine], the 50% inhibitory concentration (IC50) was 525 nM in test [1] and 410 nM in test [2].

In the case of `CCc1cc(-c2[nH]c3ccc(C4CCN(CCNC)CC4)cc3c2C)ccn1` [Example 748, 2-(4-(2-(2-ethylpyridin-4-yl)-3-methyl-1H-indol-5-yl)piperidin-1-yl)-N-methylethan-1-amine], the IC50 in test [1] is 95 nM; in test [2], 495 nM. As to `CNCCN1CCC(c2ccc3[nH]c(-c4cc(OCCOC)ncc4F)c(C)c3c2)CC1` [Example 749, 2-(4-(2-(5-fluoro-2-(2-methoxyethoxy)pyridin-4-yl)-3-methyl-1H-indol-5-yl)piperidin-1-yl)-N-methylethan-1-amine], the IC50 stood at 640 nM in test [1] and 4830 nM in test [2]. As for `CNCCN1CCC(c2ccc3[nH]c(-c4ccnc(F)c4)c(C)c3c2)CC1` [Example 750, 2-(4-(2-(2-fluoropyridin-4-yl)-3-methyl-1H-indol-5-yl)piperidin-1-yl)-N-methylethan-1-amine], the figures for the IC50 in test [1] and in test [2] were 270 nM and 332 nM, respectively.

Regarding `CCc1c(-c2ccnc(NC)c2)[nH]c2ccc(C3CCN(C4CCN(CC(C)C)CC4)CC3)cc12` [Example 771, 4-(3-ethyl-5-(1′-isobutyl-[1,4′-bipiperidin]-4-yl)-1H-indol-2-yl)-N-methylpyridin-2-amine], the figures for the IC50 in test [1] and in test [2] were 169 nM and 3370 nM, respectively. For `CCNc1cc(-c2[nH]c3ccc(C4CCN(C5CCN(CC(C)C)CC5)CC4)cc3c2CC)ccn1` [Example 772, N-ethyl-4-(3-ethyl-5-(1′-isobutyl-[1,4′-bipiperidin]-4-yl)-1H-indol-2-yl)pyridin-2-amine], in that order: 205 nM and 9850 nM. As for `CCc1c(-c2ccnc(OC(F)F)c2)[nH]c2ccc(C3CCN(C4CCN(CC(C)C)CC4)CC3)cc12` [Example 774, 2-(2-(difluoromethoxy)pyridin-4-yl)-3-ethyl-5-(1′-isobutyl-[1,4′-bipiperidin]-4-yl)-1H-indole], the IC50 in test [1] is 663 nM; in test [2], 3700 nM.

Take `CCc1c(-c2ccnc(OC(F)F)c2)[nH]c2ccc(C3CCN(C4CCN(CC(C)C)CC4)CC3)cc12` [Example 775, 2-(2-(difluoromethoxy)pyridin-4-yl)-3-ethyl-5-(1′-isobutyl-[1,4′-bipiperidin]-4-yl)-1H-indole]: the results for the IC50 in test [1] and in test [2] were 379 nM and 5660 nM, respectively. The molecule `CNCCN1CCC(c2ccc3[nH]c(-c4ccncc4)c(C)c3c2)CC1` [Example 776, N-methyl-2-(4-(3-methyl-2-(pyridin-4-yl)-1H-indol-5-yl)piperidin-1-yl)ethan-1-amine] had an IC50 in test [2] of 545 nM. Consider `CNCCN1CCC(c2ccc3[nH]c(-c4ccnc(OC)c4)c(C)c3c2)CC1` [Example 777, 2-(4-(2-(2-methoxypyridin-4-yl)-3-methyl-1H-indol-5-yl)piperidin-1-yl)-N-methylethan-1-amine], for which 515 nM corresponded to half-maximal inhibition in test [2] (IC50).
